Laboratory results: the supplement of paper PMC11061612

Tests used:
Assay in all cases: Bliss excess, mean over the matrix (fraction); higher = more synergy
[1] = system: TGBC11TKB (Gastric Carcinoma)
Procedure, shortened: (§1)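 Cell lines grown in DMEM/F12 or RPMI with 10% FBS were plated in 1536-well plates and held 24 hours at 37°C, 5% CO2 before 72 hours of exposure to two-drug dose matrices, with DMSO typically at 0.2%. CellTiter-Glo 2.0 luminescence gave viability, which was converted to inhibition. Vehicle wells were set to 0 and blank wells to 1. Combination Emax is the second-highest inhibition in the matrix, and Bliss excess is the observed combination effect minus the expected EA + EB − EA·EB, where EA and EB are the single-agent effects.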

EW-18 (Ewing's Sarcoma) = system: EW-18 (Ewing's Sarcoma)
Procedure, shortened: as §1

[2] = system: DG-75 (Burkitt's Lymphoma)
Procedure, shortened: as §1

[3] = system: NCI-H513 (Other Solid Carcinomas)
Procedure, shortened: as §1

[4] = system: NCI-H2347 (Lung Adenocarcinoma)
Procedure, shortened: as §1

A704 (Kidney Carcinoma) = system: A704 (Kidney Carcinoma)
Procedure, shortened: as §1

[5] = system: SNU-C1 (Colorectal Carcinoma)
Procedure, shortened: as §1

[6] = system: NCI-H322M (Lung Adenocarcinoma)
Procedure, shortened: as §1

[7] = system: EMC-BAC-2 (Non-Small Cell Lung Carcinoma)
Procedure, shortened: as §1

[8] = system: SCC-9 (Oral Cavity Carcinoma)
Procedure, shortened: as §1

[9] = system: KYSE-150 (Esophageal Squamous Cell Carcinoma)
Procedure, shortened: as §1

[10] = system: HSC-2 (Oral Cavity Carcinoma)
Procedure, shortened: as §1

NH-12 (Neuroblastoma) = system: NH-12 (Neuroblastoma)
Procedure, shortened: as §1

RPMI-7951 (Melanoma) = system: RPMI-7951 (Melanoma)
Procedure, shortened: as §1

[11] = system: HuP-T3 (Pancreatic Carcinoma)
Procedure, shortened: as §1

BT-20 (Breast Carcinoma) = system: BT-20 (Breast Carcinoma)
Procedure, shortened: as §1

IMR-5 (Neuroblastoma) = system: IMR-5 (Neuroblastoma)
Procedure, shortened: as §1

[12] = system: NCI-H2405 (Lung Adenocarcinoma)
Procedure, shortened: as §1

[13] = system: OCUB-M (Breast Carcinoma)
Procedure, shortened: as §1

Work on C=CCn1c(=O)c2cnc(Nc3ccc(N4CCN(C)CC4)cc3)nc2n1-c1cccc(C(C)(C)O)n1 [AZD1775] + C[C@@H]1COCCN1C2=NC(=NC(=C2)C3(CC3)[S@](=N)(=O)C)C4=C5C=CNC5=NC=C4 [AZD6738] (first compound max 1 µM, partner max 10 µM) yielded a Bliss excess [1] of 0.0431, a Bliss excess (EW-18 (Ewing's Sarcoma)) of -0.0198 and a Bliss excess [2] of 0.0482. For the same molecule, the Bliss excess [3] was -0.0058, the Bliss excess [4] was 0.0438 and the Bliss excess (A704 (Kidney Carcinoma)) was -0.0022. For the same molecule, the Bliss excess [5] was 0.0303, the Bliss excess [6] was -0.0234 and the Bliss excess [7] was 0.0125. The Bliss excess [8] was -0.0425, the Bliss excess [9] was -0.029 and the Bliss excess [10] was 0.0675. The Bliss excess (NH-12 (Neuroblastoma)) was 0.0262, the Bliss excess (RPMI-7951 (Melanoma)) was 0.0368 and the Bliss excess [11] was 0.0338. It also gave a Bliss excess (BT-20 (Breast Carcinoma)) of 0.0448, a Bliss excess (IMR-5 (Neuroblastoma)) of 0.085 and a Bliss excess [12] of -0.0039. The Bliss excess [13] was 0.0642.

COc1cc2c(cc1OCCCCCOc1cc3c(cc1OC)C(=O)N1C=C(C)C[C@H]1C=N3)N=C[C@@H]1CC(C)=CN1C2=O [SG3199] + O=C(c1cc(Cc2n[nH]c(=O)c3ccccc23)ccc1F)N1CCN(C(=O)C2CC2)CC1 [Olaparib] (first compound max 0.001 µM, 7x7, partner max 10 µM) showed a Bliss excess [1] of -0.0038, a Bliss excess (EW-18 (Ewing's Sarcoma)) of -0.0629 and a Bliss excess [2] of 0.0064. For the same molecule, the Bliss excess [3] was -0.0325, the Bliss excess [4] was -0.0661 and the Bliss excess (A704 (Kidney Carcinoma)) was -0.025. For the same molecule, the Bliss excess [5] was -0.0446, the Bliss excess [6] was -0.0014 and the Bliss excess [7] was -0.0467. The Bliss excess [8] was -0.0352, the Bliss excess [9] was -0.0131 and the Bliss excess [10] was -0.0751. It also gave a Bliss excess (NH-12 (Neuroblastoma)) of 0.0343, a Bliss excess (RPMI-7951 (Melanoma)) of 0.0032 and a Bliss excess [11] of -0.0442. The Bliss excess (BT-20 (Breast Carcinoma)) was -0.0366, the Bliss excess (IMR-5 (Neuroblastoma)) was 0.0167 and the Bliss excess [12] was -0.043. For the same molecule, the Bliss excess [13] was -0.0502.

Molecule C=CCn1c(=O)c2cnc(Nc3ccc(N4CCN(C)CC4)cc3)nc2n1-c1cccc(C(C)(C)O)n1 [AZD1775] + O=C(c1cc(Cc2n[nH]c(=O)c3ccccc23)ccc1F)N1CCN(C(=O)C2CC2)CC1 [Olaparib] (first compound max 1 µM, partner max 10 µM) has a Bliss excess [1] of -0.0299, a Bliss excess (EW-18 (Ewing's Sarcoma)) of -0.0742 and a Bliss excess [2] of -0.0491. For the same molecule, the Bliss excess [3] was -0.0399, the Bliss excess [4] was -0.0921 and the Bliss excess (A704 (Kidney Carcinoma)) was -0.0396. The Bliss excess [5] was -0.0721, the Bliss excess [6] was -0.0222 and the Bliss excess [7] was -0.0526. The Bliss excess [8] was -0.0027, the Bliss excess [9] was 0.0282 and the Bliss excess [10] was -0.0249. The Bliss excess (NH-12 (Neuroblastoma)) was -0.0167, the Bliss excess (RPMI-7951 (Melanoma)) was -0.0176 and the Bliss excess [11] was -0.0047. The Bliss excess (BT-20 (Breast Carcinoma)) was -0.0681, the Bliss excess (IMR-5 (Neuroblastoma)) was -0.0161 and the Bliss excess [12] was -0.0675. The Bliss excess [13] was -0.0211.

With Cc1cc2ncnn2cc1Nc1ncc2c(n1)n(C1CCOCC1)c(=O)n2C [AZD7648] + C[C@@H]1COCCN1C2=NC(=NC(=C2)C3(CC3)[S@](=N)(=O)C)C4=C5C=CNC5=NC=C4 [AZD6738] (first compound max 10 µM, 7x7, partner max 10 µM) the Bliss excess [1] was 0.0009, the Bliss excess (EW-18 (Ewing's Sarcoma)) was -0.0133 and the Bliss excess [2] was -0.0477. For the same molecule, the Bliss excess [3] was -0.0383, the Bliss excess [4] was -0.0451 and the Bliss excess (A704 (Kidney Carcinoma)) was 0.0177. It also gave a Bliss excess [5] of -0.0708, a Bliss excess [6] of -0.0048 and a Bliss excess [7] of 0.0575. For the same molecule, the Bliss excess [8] was 0.0507, the Bliss excess [9] was -0.0061 and the Bliss excess [10] was 0.0627. The Bliss excess (NH-12 (Neuroblastoma)) was -0.0035, the Bliss excess (RPMI-7951 (Melanoma)) was 0.0028 and the Bliss excess [11] was -0.0453. It also gave a Bliss excess (BT-20 (Breast Carcinoma)) of 0.0399, a Bliss excess (IMR-5 (Neuroblastoma)) of 0.0088 and a Bliss excess [12] of 0.0068. It also gave a Bliss excess [13] of 0.0509.

For COc1cccc(OCCCN)c1-c1cc(Nc2cnc(C#N)cn2)n[nH]1 [Prexasertib] + C[C@@H]1COCCN1C2=NC(=NC(=C2)C3(CC3)[S@](=N)(=O)C)C4=C5C=CNC5=NC=C4 [AZD6738] (first compound max 1 µM, 7x7, partner max 10 µM), the Bliss excess [1] was -0.0137, the Bliss excess (EW-18 (Ewing's Sarcoma)) was -0.0548 and the Bliss excess [2] was -0.0381. For the same molecule, the Bliss excess [3] was -0.0104, the Bliss excess [4] was -0.081 and the Bliss excess (A704 (Kidney Carcinoma)) was 0.0224. The Bliss excess [5] was -0.0078, the Bliss excess [6] was -0.0367 and the Bliss excess [7] was 0.0076. The Bliss excess [8] was 0.0803, the Bliss excess [9] was -0.0265 and the Bliss excess [10] was 0.0649. It also gave a Bliss excess (NH-12 (Neuroblastoma)) of -0.0392, a Bliss excess (RPMI-7951 (Melanoma)) of -0.0372 and a Bliss excess [11] of 0.0032. For the same molecule, the Bliss excess (BT-20 (Breast Carcinoma)) was -0.0218, the Bliss excess (IMR-5 (Neuroblastoma)) was -0.01 and the Bliss excess [12] was 0.0046. The Bliss excess [13] was 0.0421.

With COc1cccc(OCCCN)c1-c1cc(Nc2cnc(C#N)cn2)n[nH]1 [Prexasertib] + Cc1cc2ncnn2cc1Nc1ncc2c(n1)n(C1CCOCC1)c(=O)n2C [AZD7648] (first compound max 1 µM, 7x7, partner max 10 µM) the Bliss excess [1] was -0.0148, the Bliss excess (EW-18 (Ewing's Sarcoma)) was -0.0679 and the Bliss excess [2] was -0.055. For the same molecule, the Bliss excess [3] was 0.0134, the Bliss excess [4] was -0.0552 and the Bliss excess (A704 (Kidney Carcinoma)) was 0.0144. It also gave a Bliss excess [5] of -0.0873, a Bliss excess [6] of -0.0083 and a Bliss excess [7] of -0.019. It also gave a Bliss excess [8] of 0.0092, a Bliss excess [9] of -0.0312 and a Bliss excess [10] of -0.0403. For the same molecule, the Bliss excess (NH-12 (Neuroblastoma)) was -0.0133, the Bliss excess (RPMI-7951 (Melanoma)) was 0.0049 and the Bliss excess [11] was 0.016. For the same molecule, the Bliss excess (BT-20 (Breast Carcinoma)) was -0.0536, the Bliss excess (IMR-5 (Neuroblastoma)) was -0.0065 and the Bliss excess [12] was -0.0386. It also gave a Bliss excess [13] of -0.0611.

With COc1cccc2c1C(=O)c1c(O)c3c(c(O)c1C2=O)C[C@@](O)(C(=O)CO)C[C@@H]3O[C@H]1C[C@H](N)[C@H](O)[C@H](C)O1 [Doxorubicin] + Cc1cc2ncnn2cc1Nc1ncc2c(n1)n(C1CCOCC1)c(=O)n2C [AZD7648] (first compound max 1 µM, 7x7, partner max 10 µM) the Bliss excess [1] was -0.0146, the Bliss excess (EW-18 (Ewing's Sarcoma)) was 0.0402 and the Bliss excess [2] was 0.0787. It also gave a Bliss excess [3] of 0.0341, a Bliss excess [4] of -0.0486 and a Bliss excess (A704 (Kidney Carcinoma)) of -0.023. The Bliss excess [5] was -0.0037, the Bliss excess [6] was 0.0751 and the Bliss excess [7] was 0.0828. For the same molecule, the Bliss excess [8] was -0.0027, the Bliss excess [9] was 0.0648 and the Bliss excess [10] was 0.0891. It also gave a Bliss excess (NH-12 (Neuroblastoma)) of 0.0953, a Bliss excess (RPMI-7951 (Melanoma)) of 0.0709 and a Bliss excess [11] of 0.0022. It also gave a Bliss excess (BT-20 (Breast Carcinoma)) of 0.0371, a Bliss excess (IMR-5 (Neuroblastoma)) of 0.194 and a Bliss excess [12] of -0.0042. For the same molecule, the Bliss excess [13] was 0.0696.

Molecule CCN(CCO)CCCOc1ccc2c(Nc3cc(CC(=O)Nc4cccc(F)c4)[nH]n3)ncnc2c1 [AZD2811] + O=C(c1cc(Cc2n[nH]c(=O)c3ccccc23)ccc1F)N1CCN(C(=O)C2CC2)CC1 [Olaparib] (first compound max 1 µM, 7x7, partner max 10 µM) has a Bliss excess [1] of 0.0524, a Bliss excess (EW-18 (Ewing's Sarcoma)) of -0.0534 and a Bliss excess [2] of 0.0063. The Bliss excess [3] was -0.0203, the Bliss excess [4] was -0.0303 and the Bliss excess (A704 (Kidney Carcinoma)) was -0.0195. For the same molecule, the Bliss excess [5] was -0.0016, the Bliss excess [6] was -0.0063 and the Bliss excess [7] was 0.0112. It also gave a Bliss excess [8] of -0.0188, a Bliss excess [9] of 0.0291 and a Bliss excess [10] of 0.0524. It also gave a Bliss excess (NH-12 (Neuroblastoma)) of 0.0109, a Bliss excess (RPMI-7951 (Melanoma)) of 0.0463 and a Bliss excess [11] of -0.0195. The Bliss excess (BT-20 (Breast Carcinoma)) was 0.0358, the Bliss excess (IMR-5 (Neuroblastoma)) was -0.0208 and the Bliss excess [12] was -0.0075. The Bliss excess [13] was -0.0413.
